Results published in patent publication US20030104507A1, “Method for detection of ATP” (priority 2001, published 2003).

Tested on: ATPase activity endogenous to L929 cell lysate
Assay: Detergent inhibition of ATPase endogenous to L929 cell lysate (ATP remaining by luciferase luminescence, 22° C.)
Format: biochemical
Design: key to Relative ATPase Activity, slope det/slope lysate: slope with detergent / slope without; ≥1.0 = 100% activity, 0.5 = 50%
Conditions: for concentrations which resulted in a 25% or greater decrease in the relative ATPase activity: compared to reactions in the absence of detergent
How it was run: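 L929 lysate (1.5×10^5 cells/ml, four freeze–thaw cycles) held with detergent at final 1.0, 0.5, 0.1 or 0.05% at 22° C; remaining ATP read over time with luciferase-luciferin reagent (100 μM luciferin, 10 mM MgSO4, pH 7.5). Relative ATPase activity = slope of log % ATP remaining vs time with detergent ÷ slope for lysate-only control.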

[1] = 0.50 percent detergent, second 0.50 line of DTAB (assayed on two days)
[2] = Example 2, 0.02% detergent, 5 min
[3] = Example 2, 0.02% detergent, 75 min
[4] = Example 2, 0.02% detergent, 169 min
[5] = Example 2, 0.02% detergent, 222 min
[6] = Example 2, 0.02% detergent, 260 min
[7] = Example 2, 0.5% detergent, 5 min
[8] = Example 2, 0.5% detergent, 75 min
[9] = Example 2, 0.5% detergent, 169 min
[10] = Example 2, 0.5% detergent, 222 min
[11] = Example 2, 0.5% detergent, 260 min

## CCCCCCCCCCCC[N+](C)(C)C.[Br-] [DTAB, dodecyltrimethylammonium bromide]
0.02 percent detergent
  Relative ATPase Activity, slope det/slope lysate: 0.884
  Slope (log percent ATP remaining vs time in minutes): −0.0056
0.05% detergent, 5 min
  Average Relative Light Unit Values: 6487.93 rlu
  Percent ATP Remaining: 100%
0.05% detergent, 75 min
  Average Relative Light Unit Values: 3138.81 rlu
  Percent ATP Remaining: 48.4%
0.05% detergent, 169 min
  Average Relative Light Unit Values: 1496.01 rlu
  Percent ATP Remaining: 23.1%
0.05% detergent, 222 min
  Average Relative Light Unit Values: 943.40 rlu
  Percent ATP Remaining: 14.5%
0.05% detergent, 260 min
  Average Relative Light Unit Values: 638.30 rlu
  Percent ATP Remaining: 9.8%
0.05 percent detergent
  Relative ATPase Activity, slope det/slope lysate: 0.690
  Slope (log percent ATP remaining vs time in minutes): −0.0039
0.1% detergent, 5 min
  Average Relative Light Unit Values: 6991.01 rlu
  Percent ATP Remaining: 100%
0.1% detergent, 75 min
  Average Relative Light Unit Values: 4753.46 rlu
  Percent ATP Remaining: 68.0%
0.1% detergent, 169 min
  Average Relative Light Unit Values: 2737.36 rlu
  Percent ATP Remaining: 39.2%
0.1% detergent, 222 min
  Average Relative Light Unit Values: 1950.95 rlu
  Percent ATP Remaining: 27.9%
0.1% detergent, 260 min
  Average Relative Light Unit Values: 1408.18 rlu
  Percent ATP Remaining: 20.1%
0.10 percent detergent
  Relative ATPase Activity, slope det/slope lysate: 0.480
  Slope (log percent ATP remaining vs time in minutes): −0.0027
0.5% (1), 5 min
  Percent ATP Remaining: 100%
0.5% (1), 75 min
  Percent ATP Remaining: 90.6%
0.5% (1), 169 min
  Percent ATP Remaining: 88.0%
0.5% (1), 222 min
  Percent ATP Remaining: 87.3%
0.5% (1), 260 min
  Percent ATP Remaining: 80.2%
0.5% (2), 5 min
  Percent ATP Remaining: 100%
0.5% (2), 75 min
  Percent ATP Remaining: 95.8%
0.5% (2), 169 min
  Percent ATP Remaining: 90.3%
0.5% (2), 222 min
  Percent ATP Remaining: 88.0%
0.5% (2), 260 min
  Percent ATP Remaining: 85.0%
0.5% (day 1), 5 min
  Average Relative Light Unit Values: 5630.61 rlu
0.5% (day 1), 75 min
  Average Relative Light Unit Values: 5100.09 rlu
0.5% (day 1), 169 min
  Average Relative Light Unit Values: 4957.48 rlu
0.5% (day 1), 222 min
  Average Relative Light Unit Values: 4916.46 rlu
0.5% (day 1), 260 min
  Average Relative Light Unit Values: 4515.20 rlu
0.5% (day 2), 5 min
  Average Relative Light Unit Values: 6617.08 rlu
0.5% (day 2), 75 min
  Average Relative Light Unit Values: 6341.09 rlu
0.5% (day 2), 169 min
  Average Relative Light Unit Values: 5977.33 rlu
0.5% (day 2), 222 min
  Average Relative Light Unit Values: 5824.18 rlu
0.5% (day 2), 260 min
  Average Relative Light Unit Values: 5622.12 rlu
0.50 percent detergent
  Relative ATPase Activity, slope det/slope lysate: 0.055
  Slope (log percent ATP remaining vs time in minutes): −0.0003
[1]
  Relative ATPase Activity, slope det/slope lysate: 0.048
  Slope (log percent ATP remaining vs time in minutes): −0.0003
1.0% detergent, 5 min
  Average Relative Light Unit Values: 800.61 rlu
  Percent ATP Remaining: 100%
1.0% detergent, 75 min
  Average Relative Light Unit Values: 693.13 rlu
  Percent ATP Remaining: 86.6%
1.0% detergent, 169 min
  Average Relative Light Unit Values: 649.41 rlu
  Percent ATP Remaining: 81.1%
1.0% detergent, 222 min
  Average Relative Light Unit Values: 671.03 rlu
  Percent ATP Remaining: 83.8%
1.0% detergent, 260 min
  Average Relative Light Unit Values: 645.40 rlu
  Percent ATP Remaining: 80.6%
1.00 percent detergent
  Relative ATPase Activity, slope det/slope lysate: 0.057
  Slope (log percent ATP remaining vs time in minutes): −0.0003
[2]
  Average Relative Light Unit Values: 5870.43 rlu
  Percent ATP Remaining: 100.00%
[3]
  Average Relative Light Unit Values: 1997.09 rlu
  Percent ATP Remaining: 34.02%
[4]
  Average Relative Light Unit Values: 435.05 rlu
  Percent ATP Remaining: 7.41%
[5]
  Average Relative Light Unit Values: 329.83 rlu
  Percent ATP Remaining: 5.62%
[6]
  Average Relative Light Unit Values: 227.72 rlu
  Percent ATP Remaining: 3.88%
[7]
  Average Relative Light Unit Values: 5189.8 rlu
  Percent ATP Remaining: 100.00%
[8]
  Average Relative Light Unit Values: 4564.65 rlu
  Percent ATP Remaining: 87.95%
[9]
  Average Relative Light Unit Values: 4111.89 rlu
  Percent ATP Remaining: 79.23%
[10]
  Average Relative Light Unit Values: 4230.51 rlu
  Percent ATP Remaining: 81.52%
[11]
  Average Relative Light Unit Values: 4267.32 rlu
  Percent ATP Remaining: 82.23%
  concentrations which resulted in a 25% or greater decrease in the relative ATPase activity: ≥ 0.05%

## C[C@H](CCC(=O)[O-])[C@H]1CC[C@H]2[C@@H]3CC[C@@H]4C[C@H](O)CC[C@]4(C)[C@H]3C[C@H](O)[C@]12C.[Na+] [Deoxycholate, sodium deoxycholate]
0.02 percent detergent
  Relative ATPase Activity, slope det/slope lysate: 1.004
  Slope (log percent ATP remaining vs time in minutes): −0.0064
0.05% detergent, 5 min
  Average Relative Light Unit Values: 5810.85 rlu
  Percent ATP Remaining: 100%
0.05% detergent, 75 min
  Average Relative Light Unit Values: 1729.95 rlu
  Percent ATP Remaining: 29.8%
0.05% detergent, 169 min
  Average Relative Light Unit Values: 738.1 rlu
  Percent ATP Remaining: 12.7%
0.05% detergent, 222 min
  Average Relative Light Unit Values: 375.74 rlu
  Percent ATP Remaining: 6.5%
0.05% detergent, 260 min
  Average Relative Light Unit Values: 188.59 rlu
  Percent ATP Remaining: 3.2%
0.05 percent detergent
  Relative ATPase Activity, slope det/slope lysate: 0.984
  Slope (log percent ATP remaining vs time in minutes): −0.0055
0.1% detergent, 5 min
  Average Relative Light Unit Values: 6422.34 rlu
  Percent ATP Remaining: 100%
0.1% detergent, 75 min
  Average Relative Light Unit Values: 3730.44 rlu
  Percent ATP Remaining: 57.9%
0.1% detergent, 169 min
  Average Relative Light Unit Values: 1627.81 rlu
  Percent ATP Remaining: 25.3%
0.1% detergent, 222 min
  Average Relative Light Unit Values: 1028.42 rlu
  Percent ATP Remaining: 16.0%
0.1% detergent, 260 min
  Average Relative Light Unit Values: 669.31 rlu
  Percent ATP Remaining: 10.4%
0.10 percent detergent
  Relative ATPase Activity, slope det/slope lysate: 0.684
  Slope (log percent ATP remaining vs time in minutes): −0.0038
0.5% detergent, 5 min
  Average Relative Light Unit Values: 3189.56 rlu
  Percent ATP Remaining: 100%
0.5% detergent, 75 min
  Average Relative Light Unit Values: 2715.45 rlu
  Percent ATP Remaining: 85.1%
0.5% detergent, 169 min
  Average Relative Light Unit Values: 2268.77 rlu
  Percent ATP Remaining: 71.1%
0.5% detergent, 222 min
  Average Relative Light Unit Values: 2105.38 rlu
  Percent ATP Remaining: 66.0%
0.5% detergent, 260 min
  Average Relative Light Unit Values: 1845.36 rlu
  Percent ATP Remaining: 57.9%
0.50 percent detergent
  Relative ATPase Activity, slope det/slope lysate: 0.158
  Slope (log percent ATP remaining vs time in minutes): −0.0009
1.0% detergent, 5 min
  Average Relative Light Unit Values: 3.98 rlu
1.0% detergent, 75 min
  Average Relative Light Unit Values: 3.63 rlu
1.0% detergent, 169 min
  Average Relative Light Unit Values: 3.63 rlu
1.0% detergent, 222 min
  Average Relative Light Unit Values: 3.15 rlu
1.0% detergent, 260 min
  Average Relative Light Unit Values: 3.24 rlu
[2]
  Average Relative Light Unit Values: 5962.61 rlu
  Percent ATP Remaining: 100.00%
[3]
  Average Relative Light Unit Values: 1694.47 rlu
  Percent ATP Remaining: 28.42%
[4]
  Average Relative Light Unit Values: 368.11 rlu
  Percent ATP Remaining: 6.17%
[5]
  Average Relative Light Unit Values: 241.05 rlu
  Percent ATP Remaining: 4.04%
[6]
  Average Relative Light Unit Values: 135.25 rlu
  Percent ATP Remaining: 2.27%
SDS 0.05%, deoxycholate 0.5% and 0.1%
  times more ATP present in the sample after four hours when the detergent was present than when it was absent: about three to about twenty
  concentrations which resulted in a 25% or greater decrease in the relative ATPase activity: ≥ 0.1%
